In this test the target is T1, human RXFP1 (Homo sapiens, UniProt Q9HBX9).
T1 sequence (Q9HBX9 1-757): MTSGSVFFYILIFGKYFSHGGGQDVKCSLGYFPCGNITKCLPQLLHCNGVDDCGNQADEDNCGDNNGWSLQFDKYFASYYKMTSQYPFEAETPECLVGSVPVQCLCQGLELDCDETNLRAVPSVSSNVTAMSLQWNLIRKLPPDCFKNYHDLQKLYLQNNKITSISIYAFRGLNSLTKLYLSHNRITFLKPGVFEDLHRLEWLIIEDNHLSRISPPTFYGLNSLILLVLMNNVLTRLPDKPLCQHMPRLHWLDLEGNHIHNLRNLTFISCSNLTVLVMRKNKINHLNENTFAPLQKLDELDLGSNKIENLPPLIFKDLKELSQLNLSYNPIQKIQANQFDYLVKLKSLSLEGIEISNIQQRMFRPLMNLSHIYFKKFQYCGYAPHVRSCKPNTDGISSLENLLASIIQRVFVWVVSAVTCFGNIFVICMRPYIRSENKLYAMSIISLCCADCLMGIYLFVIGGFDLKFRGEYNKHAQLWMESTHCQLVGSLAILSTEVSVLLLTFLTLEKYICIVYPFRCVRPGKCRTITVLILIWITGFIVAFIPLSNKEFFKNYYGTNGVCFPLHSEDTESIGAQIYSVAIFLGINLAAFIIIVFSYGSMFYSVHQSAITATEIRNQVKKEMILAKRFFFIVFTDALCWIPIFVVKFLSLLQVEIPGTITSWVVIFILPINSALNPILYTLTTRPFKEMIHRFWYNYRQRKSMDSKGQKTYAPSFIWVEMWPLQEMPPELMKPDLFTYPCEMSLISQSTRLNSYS
The experiment in a line: RXFP1 Hu cAMP (Test A). In kind it is cell-based. Also noted: expressed in transfected cells; host or cells: Jump-In T-REx CHO-K1 cells (ThermoFisher), induced with 10 ng/ml doxycycline for 24 h. Conditions: RXFP1 Hu cAMP; for pEC50: read-out: Test A EC50. The method, boiled down:
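Doxycycline-induced (10 ng/ml, 24 h) CHO-K1 cells stably expressing human RXFP1; cAMP read by competitive HTRF after 2 h at room temperature, with 0.5 mM IBMX final.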

pEC50: −log10 of the molar value. Bounds are passed on as bounds.

Consider `COc1cc(F)c(OCc2ccc(C(=O)O)cc2)cc1C(=O)N[C@@H]1[C@H]2CC[C@H](C2)[C@@H]1C(=O)Nc1cccc(S(=O)(=O)C(F)(F)F)c1` [Example 438], for which the “Test A Sinf” value came out at 112% and the negative logarithm of the EC50 (pEC50) was 6.59.

Take `COc1cc(F)c(OC[C@H]2CC[C@@H](C(=O)O)CC2)cc1C(=O)N[C@@H]1[C@H]2CC[C@H](C2)[C@@H]1C(=O)Nc1cccc(S(=O)(=O)C(F)(F)F)c1` [Example 440]: the “Test A Sinf” value came to 111% and the negative-log EC50 (pEC50) was 5.92. With `COc1cc(F)c(OCC23CCC(C(=O)O)(CC2)CC3)cc1C(=O)N[C@@H]1[C@H]2CC[C@H](C2)[C@@H]1C(=O)Nc1cccc(S(=O)(=O)C(F)(F)F)c1` [Example 441], the pEC50 was less than 4.40. Consider `COc1cc(F)c(O[C@H]2CC[C@](C)(C(=O)O)CC2)cc1C(=O)NC1[C@H]2CC[C@H](C2)[C@@H]1C(=O)Nc1cccc(S(=O)(=O)C(F)(F)F)c1` (stereo partly shown) [Example 445], for which the “Test A Sinf” value is on record as 101%. In the case of `COc1cc(F)c(OC2CCC(N)(C(=O)O)CC2)cc1C(=O)N[C@@H]1[C@H]2CC[C@H](C2)[C@@H]1C(=O)Nc1cccc(S(=O)(=O)C(F)(F)F)c1` (stereo partly drawn) [Example 458, 1-Amino-4-(2-fluoro-4-methoxy-5-(((1S,2R,3S,4R)-3-((3-((trifluoromethyl)sulfonyl)phenyl)carbamoyl)bicyclo[2.2.1]heptan-2-yl)carbamoyl)phenoxy)cyclohexane-1-carboxylic acid], the “Test A Sinf” value was 104% and the pEC50 is 6.96. In the same order, the values of `COc1cc(F)c(O[C@H]2CC[C@@H](NS(C)(=O)=O)CC2)cc1C(=O)N[C@@H]1[C@H]2CC[C@H](C2)[C@@H]1C(=O)Nc1cccc(S(=O)(=O)C(F)(F)F)c1` [Example 459, (1R,2S,3R,4S)-3-(4-Fluoro-2-methoxy-5-(((1s,4S)-4-(methylsulfonamido)cyclohexyl)oxy)benzamido)-N-(3-((trifluoromethyl)sulfonyl)phenyl)bicyclo[2.2.1]heptane-2-carboxamide] are 91% and 6.49. For `COc1cc(F)c(O[C@H]2CC[C@H](S(N)(=O)=O)CC2)cc1C(=O)N[C@@H]1[C@@H]2CC[C@@H](C2)[C@@H]1C(=O)Nc1cccc(S(=O)(=O)C(F)(F)F)c1` [Example 462, (1S,2S,3R,4R)-3-(4-fluoro-2-methoxy-5-(((1r,4R)-4-sulfamoylcyclohexyl)oxy)benzamido)-N-(3-((trifluoromethyl)sulfonyl)phenyl)bicyclo[2.2.1]heptane-2-carboxamide], the “Test A Sinf” value was 125%. In the case of `COc1cc(F)c(O[C@H]2CC[C@@H](S(N)(=O)=O)CC2)cc1C(=O)N[C@@H]1[C@@H]2CC[C@@H](C2)[C@@H]1C(=O)Nc1cccc(S(=O)(=O)C(F)(F)F)c1` [Example 463, (1S,2S,3R,4R)-3-(4-Fluoro-2-methoxy-5-(((1s,4S)-4-sulfamoylcyclohexyl)oxy)benzamido)-N-(3-((trifluoromethyl)sulfonyl)phenyl)bicyclo[2.2.1]heptane-2-carboxamide], the “Test A Sinf” value is reported as 111% and the pEC50 is 6.47.

For the compound `COc1cc(F)c(OC[C@H]2C[C@H](C(=O)O)C2)cc1C(=O)N[C@@H]1[C@@H]2CC[C@@H](C2)[C@@H]1C(=O)Nc1cccc(S(=O)(=O)C(F)(F)F)c1` [Example 472, (1R,3r)-3-((2-Fluoro-4-methoxy-5-(((1R,2R,3S,4S)-3-((3-((trifluoromethyl)sulfonyl)phenyl)carbamoyl)bicyclo[2.2.1]heptan-2-yl)carbamoyl)phenoxy)methyl)cyclobutane-1-carboxylic acid], the “Test A Sinf” value amounted to 91%.

Take `COc1cc(F)c(OC[C@H]2C[C@@H](C(=O)O)C2)cc1C(=O)N[C@@H]1[C@@H]2CC[C@@H](C2)[C@@H]1C(=O)Nc1cccc(S(=O)(=O)C(F)(F)F)c1` [Example 473, (1S,3s)-3-((2-Fluoro-4-methoxy-5-(((1R,2R,3S,4S)-3-((3-((trifluoromethyl)sulfonyl)phenyl)carbamoyl)bicyclo[2.2.1]heptan-2-yl)carbamoyl)phenoxy)methyl)cyclobutane-1-carboxylic acid]: the “Test A Sinf” value stood at 104% and the negative logarithm of the EC50 (pEC50) is 6.85.

The record behind these values is patent US11667602B2, “Compounds and their use” (AstraZeneca AB, priority 2020, dated 2023).
